The source of these data is patent US20200069691A1, “HETEROCYCLIC COMPOUNDS AS HIV PROTEASE INHIBITORS” (Merck Sharp & Dohme Corp., priority 2016, published 2020).

The target in this test is T1, wild-type HIV-1 protease (Human immunodeficiency virus type 1 group M subtype B, UniProt P04585).
T1 construct: Escherichia coli expressed wild-type HIV-1 protease protein
Put plainly: Assay for Inhibition of Microbial Expressed HIV Protease (peptide substrate cleavage, LC-MS/MS readout). The conditions noted are these: E. coli expressed wild-type HIV-1 protease, mean of at least two independent experiments, read-out: HIV Pr Enzyme HIV1 PR IC50. Format: biochemical. A digest of the protocol:
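Cleavage of Val-Ser-Gln-Asn-(β-naphthyl)Ala-Pro-Ile-Val (400 μM) by recombinant HIV-1 protease ([…]) ran 1 h at 30 °C after a 30 min room-temperature inhibitor preincubation in 50 mM sodium acetate pH 5.5. Product peak areas by LC-MS/MS gave inhibition; values average at least two independent runs.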

As to `N=C1NC(c2ccc(F)cc2)(c2ccc(F)cc2)C(=O)N1Cc1cccc(C(=O)N2CCN(C(=O)c3ccco3)CC2)c1` [Compound 267, 5,5-bis(4-fluorophenyl)-3-(3-{[4-(furan-2-ylcarbonyl)piperazin-1-yl]carbonyl}benzyl)-2-iminoimidazolidin-4-one], the concentration for half-maximal inhibition (IC50) (in general, the concentration at which inhibition is half-maximal) was 26.3 nM.
To `CC(C)CC1(c2ccccc2)NC(=N)N(Cc2cccc(C(=O)N3CCN(C(=O)c4ccco4)CC3)c2)C1=O` (stereo not drawn) [Compound 268, 3-(3-{[4-(furan-2-ylcarbonyl)piperazin-1-yl]carbonyl}benzyl)-2-imino-5-(2-methylpropyl)-5-phenylimidazolidin-4-one] belongs 26.8 nM; to `N=C1NC(c2ccccc2)(c2ccccc2)C(=O)N1Cc1cccc(C(=O)N2CCc3ccc(F)cc3C2)c1` [Compound 269, 3-{3-[(7-fluoro-3,4-dihydroisoquinolin-2(1H)-yl)carbonyl]benzyl}-2-imino-5,5-diphenylimidazolidin-4-one], 26.9 nM.
Turning to `CC(C)CCC1(c2cccc(F)c2)NC(=N)N(Cc2cccc(C(=O)N3Cc4ccccc4C3)c2)C1=O` (stereo not drawn) [Compound 270, 3-[3-(1,3-dihydro-2H-isoindol-2-ylcarbonyl)benzyl]-5-(3-fluorophenyl)-2-imino-5-(3-methylbutyl)imidazolidin-4-one], the 50% inhibitory concentration (IC50) was found to be 27 nM.
With `N=C1NC(c2ccccc2)(c2ccccc2)C(=O)N1Cc1cccc(C(=O)N2Cc3cc(Cl)c(Cl)cc3C2)c1` [Compound 271, 3-{3-[(5,6-dichloro-1,3-dihydro-2H-isoindol-2-yl)carbonyl]benzyl}-2-imino-5,5-diphenylimidazolidin-4-one], the concentration for half-maximal inhibition (IC50) turned out to be 27.9 nM.
To `CC(C)CC[C@]1(c2ccccc2)NC(=N)N([C@H](C)c2cccc(C(=O)N3CCN(C)C(=O)C3)c2)C1=O` [Compound 272, 4-[(3-{(1R)-1-[2-imino-4-(3-methylbutyl)-5-oxo-4-phenylimidazolidin-1-yl]ethyl}phenyl)carbonyl]-1-methylpiperazin-2-one] belongs 28.3 nM.
The figure for `N=C1NC(c2ccccc2)(c2ccc(-c3ccccc3)cc2)C(=O)N1Cc1cccc(C(=O)N2Cc3ccccc3C2)c1` (stereo not drawn) [Compound 273, 5-biphenyl-4-yl-3-[3-(1,3-dihydro-2H-isoindol-2-ylcarbonyl)benzyl]-2-imino-5-phenylimidazolidin-4-one] is 28.5 nM; for `Cc1nc2c([nH]1)CN(C(=O)c1cccc(CN3C(=N)NC(CC(C)C)(c4ccccc4)C3=O)c1)C2` (stereo not drawn) [Compound 274, 2-imino-3-{3-[(2-methyl-4,6-dihydropyrrolo[3,4-d]imidazol-5(1H)-yl)carbonyl]benzyl}-5-(2-methylpropyl)-5-phenylimidazolidin-4-one] it is 28.8 nM; for `N=C1NC(c2ccc(F)cc2)(c2ccc(F)cc2)C(=O)N1Cc1cccc(C(=O)N2CCC(n3c(=O)[nH]c4ccc(F)nc43)CC2)c1` [Compound 276, 3-{1-[(3-{[4,4-bis(4-fluorophenyl)-2-imino-5-oxoimidazolidin-1-yl]methyl}phenyl)carbonyl]piperidin-4-yl}-5-fluoro-1,3-dihydro-2H-imidazo[4,5-b]pyridin-2-one] it is 29.6 nM.
To `CC(C)CCC1(c2cccc(-c3cccnc3)c2)NC(=N)N(Cc2cccc(C(=O)N3Cc4ccccc4C3)c2)C1=O` (stereo not drawn) [Compound 277, 3-[3-(1,3-dihydro-2H-isoindol-2-ylcarbonyl)benzyl]-2-imino-5-(3-methylbutyl)-5-(3-pyridin-3-ylphenyl)imidazolidin-4-one] belongs 29.8 nM; to `CCCC1(c2ccccc2)NC(=N)N(Cc2cccc(C(=O)N3Cc4nccnc4C3)c2)C1=O` (stereo not drawn) [Compound 278, 3-[3-(5,7-dihydro-6H-pyrrolo[3,4-b]pyrazin-6-ylcarbonyl)benzyl]-2-imino-5-phenyl-5-propylimidazolidin-4-one], 182 nM; to `COC(=O)N1CCN(C(=O)c2cccc([C@@H](C)N3C(=N)N[C@](CC(C)C)(c4ccccc4)C3=O)c2)CC1` [Compound 279, methyl 4-[(3-{(1R)-1-[2-imino-4-(2-methylpropyl)-5-oxo-4-phenylimidazolidin-1-yl]ethyl}phenyl)carbonyl] piperazine-1-carboxylate], 30.5 nM.
Take `N=C1NC(c2ccc(F)cc2)(c2ccc(F)cc2)C(=O)N1Cc1cccc(C(=O)N2CCN(c3ncccn3)CC2)c1` [Compound 280, 5,5-bis(4-fluorophenyl)-2-imino-3-{3-[(4-pyrimidin-2-ylpiperazin-1-yl)carbonyl]benzyl} imidazolidin-4-one]: the IC50 came to 31 nM.
The figure for `N=C1NC(c2ccccc2)(c2ccccc2)C(=O)N1Cc1cccc(C(=O)N2CCc3c(Cl)cccc3C2)c1` [Compound 281, 3-{3-[(5-chloro-3,4-dihydroisoquinolin-2(1H)-yl)carbonyl]benzyl}-2-imino-5,5-diphenylimidazolidin-4-one] is 31.1 nM; for `CC1CN(C(=O)c2cccc(CN3C(=N)NC(c4ccccc4)(c4ccccc4)C3=O)c2)Cc2nnc(C(F)(F)F)n21` (stereo not drawn) [Compound 282, 2-imino-3-(3-{[5-methyl-3-(trifluoromethyl)-5,6-dihydro[1,2,4]triazolo[4,3-a]pyrazin-7(8H)-yl]carbonyl}benzyl)-5,5-diphenylimidazolidin-4-one] it is 31.4 nM.
Consider `CC(C)CCC1(c2ccccc2)NC(=N)N(Cc2cccc(C(=O)N3CCN(C)C(=O)C3)c2)C1=O` (stereo not drawn) [Compound 283, 4-[(3-{[2-imino-4-(3-methylbutyl)-5-oxo-4-phenylimidazolidin-1-yl]methyl}phenyl)carbonyl]-1-methylpiperazin-2-one], for which the IC50 was 31.8 nM.
To `N=C1NC(c2ccc(F)cc2)(c2cccc(-c3cccnc3)c2)C(=O)N1Cc1cccc(C(=O)N2Cc3ccccc3C2)c1` (stereo not drawn) [Compound 284, 3-[3-(1,3-dihydro-2H-isoindol-2-ylcarbonyl)benzyl]-5-(4-fluorophenyl)-2-imino-5-(3-pyridin-3-ylphenyl)imidazolidin-4-one] belongs 32.7 nM; to `N=C1NC(c2ccc(F)cc2)(c2ccc(F)cc2)C(=O)N1Cc1cccc(C(=O)N2CCN(c3ccccn3)CC2)c1` [Compound 285, 5,5-bis(4-fluorophenyl)-2-imino-3-{3-[(4-pyridin-2-ylpiperazin-1-yl)carbonyl]benzyl} imidazolidin-4-one], 33.3 nM; to `N=C1NC(c2ccc(F)cc2)(c2ccc(F)cc2)C(=O)N1Cc1cccc(C(=O)N2Cc3cc(Cl)c(Cl)cc3C2)c1` [Compound 286, 3-{3-[(5,6-dichloro-1,3-dihydro-2H-isoindol-2-yl)carbonyl]benzyl}-5,5-bis(4-fluorophenyl)-2-iminoimidazolidin-4-one], 33.7 nM.
As to `COC(=O)C1c2ccccc2CN1C(=O)c1cccc(CN2C(=N)NC(c3ccccc3)(c3ccccc3)C2=O)c1` (stereo not drawn) [Compound 287, methyl 2-({3-[(2-imino-5-oxo-4,4-diphenylimidazolidin-1-yl)methyl]phenyl}carbonyl)-2,3-dihydro-1H-isoindole-1-carboxylate], the IC50 amounted to 33.9 nM.
To `COC(=O)N1CCN(C(=O)c2cccc(CN3C(=N)NC(CC(C)C)(c4ccc(F)cc4)C3=O)c2)CC1` (stereo not drawn) [Compound 288, methyl 4-[(3-{[4-(4-fluorophenyl)-2-imino-4-(2-methylpropyl)-5-oxoimidazolidin-1-yl]methyl}phenyl)carbonyl] piperazine-1-carboxylate] belongs 35.3 nM.
